From PubChem BioAssay (NCI)
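Briefly, cells in 96-well plates were exposed to five compound concentrations for 48 h, and endpoints were estimated by linear interpolation. At the TGI there is no net growth.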

Key:
Assay in all cases: inhibition of tumour cell growth, NCI panel, 48 h
786-0 renal = test system: 786-0 renal
A498 renal = test system: A498 renal
A549 NSCLC = test system: A549 NSCLC
ACHN renal = test system: ACHN renal
CAKI-1 renal = test system: CAKI-1 renal
CCRF-CEM leukemia = test system: CCRF-CEM leukemia
COLO 205 colon = test system: COLO 205 colon
DLD-1 colon = test system: DLD-1 colon
DMS 114 small cell lung = test system: DMS 114 small cell lung
DMS 273 small cell lung = test system: DMS 273 small cell lung
EKVX NSCLC = test system: EKVX NSCLC
HCC-2998 colon = test system: HCC-2998 colon
HCT-116 colon = test system: HCT-116 colon
HCT-15 colon = test system: HCT-15 colon
HL-60(TB) leukemia = test system: HL-60(TB) leukemia
HOP-18 NSCLC = test system: HOP-18 NSCLC
HOP-62 NSCLC = test system: HOP-62 NSCLC
HOP-92 NSCLC = test system: HOP-92 NSCLC
HT29 colon = test system: HT29 colon
IGROV1 ovarian = test system: IGROV1 ovarian
K-562 leukemia = test system: K-562 leukemia
KM12 colon = test system: KM12 colon
KM20L2 colon = test system: KM20L2 colon
LOX IMVI melanoma = test system: LOX IMVI melanoma
LXFL 529 NSCLC = test system: LXFL 529 NSCLC
M14 melanoma = test system: M14 melanoma
M19-MEL melanoma = test system: M19-MEL melanoma
MALME-3M melanoma = test system: MALME-3M melanoma
MOLT-4 leukemia = test system: MOLT-4 leukemia
NCI-H226 lung = test system: NCI-H226 lung
NCI-H23 lung = test system: NCI-H23 lung
NCI-H460 lung = test system: NCI-H460 lung
NCI-H522 lung = test system: NCI-H522 lung
OVCAR-3 ovarian = test system: OVCAR-3 ovarian
OVCAR-4 ovarian = test system: OVCAR-4 ovarian
OVCAR-5 ovarian = test system: OVCAR-5 ovarian
OVCAR-8 ovarian = test system: OVCAR-8 ovarian
RPMI-8226 leukemia = test system: RPMI-8226 leukemia
RXF 393 renal = test system: RXF 393 renal
SF-268 CNS = test system: SF-268 CNS
SF-295 CNS = test system: SF-295 CNS
SF-539 CNS = test system: SF-539 CNS
SK-MEL-2 melanoma = test system: SK-MEL-2 melanoma
SK-MEL-28 melanoma = test system: SK-MEL-28 melanoma
SK-MEL-5 melanoma = test system: SK-MEL-5 melanoma
SK-OV-3 ovarian = test system: SK-OV-3 ovarian
SN12C renal = test system: SN12C renal
SNB-19 CNS = test system: SNB-19 CNS
SNB-75 CNS = test system: SNB-75 CNS
SNB-78 CNS = test system: SNB-78 CNS
SR leukemia = test system: SR leukemia
SW-620 colon = test system: SW-620 colon
TK-10 renal = test system: TK-10 renal
U251 CNS = test system: U251 CNS
UACC-257 melanoma = test system: UACC-257 melanoma
UACC-62 melanoma = test system: UACC-62 melanoma
UO-31 renal = test system: UO-31 renal
XF 498 CNS = test system: XF 498 CNS
RXF-631 renal = test system: RXF-631 renal

CCOC(=O)C(CNc1ccc(O)cc1)NC(=O)c1ccccc1 (centres undefined)
TGI (786-0 renal): > 100 µM
TGI (A498 renal): > 100 µM
TGI (A549 NSCLC): > 100 µM
TGI (ACHN renal): > 100 µM
TGI (CAKI-1 renal): > 100 µM
TGI (CCRF-CEM leukemia): > 100 µM
TGI (COLO 205 colon): > 100 µM
TGI (DLD-1 colon): > 100 µM
TGI (DMS 114 small cell lung): > 100 µM
TGI (DMS 273 small cell lung): > 100 µM
TGI (EKVX NSCLC): > 100 µM
TGI (HCC-2998 colon): > 100 µM
TGI (HCT-116 colon): > 100 µM
TGI (HCT-15 colon): > 100 µM
TGI (HL-60(TB) leukemia): 73.3 µM
TGI (HOP-18 NSCLC): > 100 µM
TGI (HOP-62 NSCLC): > 100 µM
TGI (HOP-92 NSCLC): > 100 µM
TGI (HT29 colon): > 100 µM
TGI (IGROV1 ovarian): > 100 µM
TGI (K-562 leukemia): > 100 µM
TGI (KM12 colon): > 100 µM
TGI (KM20L2 colon): > 100 µM
TGI (LOX IMVI melanoma): > 100 µM
TGI (LXFL 529 NSCLC): > 100 µM
TGI (M14 melanoma): > 100 µM
TGI (M19-MEL melanoma): > 100 µM
TGI (MALME-3M melanoma): > 100 µM
TGI (MOLT-4 leukemia): > 100 µM
TGI (NCI-H226 lung): > 100 µM
TGI (NCI-H23 lung): > 100 µM
TGI (NCI-H460 lung): > 100 µM
TGI (NCI-H522 lung): > 100 µM
TGI (OVCAR-3 ovarian): > 100 µM
TGI (OVCAR-4 ovarian): > 100 µM
TGI (OVCAR-5 ovarian): > 100 µM
TGI (OVCAR-8 ovarian): > 100 µM
TGI (RPMI-8226 leukemia): > 100 µM
TGI (RXF 393 renal): > 100 µM
TGI (SF-268 CNS): > 100 µM
TGI (SF-295 CNS): > 100 µM
TGI (SF-539 CNS): > 100 µM
TGI (SK-MEL-2 melanoma): > 100 µM
TGI (SK-MEL-28 melanoma): > 100 µM
TGI (SK-MEL-5 melanoma): > 100 µM
TGI (SK-OV-3 ovarian): > 100 µM
TGI (SN12C renal): > 100 µM
TGI (SNB-19 CNS): > 100 µM
TGI (SNB-75 CNS): > 100 µM
TGI (SNB-78 CNS): > 100 µM
TGI (SR leukemia): > 100 µM
TGI (SW-620 colon): > 100 µM
TGI (TK-10 renal): > 100 µM
TGI (U251 CNS): > 100 µM
TGI (UACC-257 melanoma): > 100 µM
TGI (UACC-62 melanoma): > 95 µM
TGI (UO-31 renal): > 100 µM
TGI (XF 498 CNS): > 100 µM

COc1ccc(C(=O)N/N=C/c2c(C)n(C)n(-c3ccccc3)c2=O)cc1
TGI (786-0 renal): > 100 µM
TGI (A498 renal): > 100 µM
TGI (A549 NSCLC): > 100 µM
TGI (ACHN renal): > 100 µM
TGI (CCRF-CEM leukemia): > 100 µM
TGI (COLO 205 colon): > 100 µM
TGI (DLD-1 colon): > 100 µM
TGI (DMS 114 small cell lung): > 100 µM
TGI (DMS 273 small cell lung): > 100 µM
TGI (EKVX NSCLC): > 100 µM
TGI (HCC-2998 colon): > 100 µM
TGI (HCT-116 colon): > 100 µM
TGI (HCT-15 colon): > 100 µM
TGI (HL-60(TB) leukemia): > 100 µM
TGI (HOP-18 NSCLC): > 100 µM
TGI (HOP-62 NSCLC): > 100 µM
TGI (HOP-92 NSCLC): > 100 µM
TGI (HT29 colon): > 100 µM
TGI (IGROV1 ovarian): > 100 µM
TGI (K-562 leukemia): > 100 µM
TGI (KM12 colon): > 100 µM
TGI (KM20L2 colon): > 100 µM
TGI (LOX IMVI melanoma): > 100 µM
TGI (LXFL 529 NSCLC): > 100 µM
TGI (M14 melanoma): > 100 µM
TGI (M19-MEL melanoma): > 100 µM
TGI (MALME-3M melanoma): > 100 µM
TGI (MOLT-4 leukemia): > 100 µM
TGI (NCI-H226 lung): > 100 µM
TGI (NCI-H23 lung): > 100 µM
TGI (NCI-H460 lung): > 100 µM
TGI (NCI-H522 lung): > 100 µM
TGI (OVCAR-3 ovarian): > 100 µM
TGI (OVCAR-4 ovarian): > 100 µM
TGI (OVCAR-8 ovarian): > 100 µM
TGI (RPMI-8226 leukemia): > 100 µM
TGI (RXF 393 renal): > 100 µM
TGI (SF-268 CNS): > 100 µM
TGI (SF-295 CNS): > 100 µM
TGI (SF-539 CNS): > 100 µM
TGI (SK-MEL-2 melanoma): > 100 µM
TGI (SK-MEL-28 melanoma): > 100 µM
TGI (SK-OV-3 ovarian): > 100 µM
TGI (SN12C renal): > 100 µM
TGI (SNB-19 CNS): > 100 µM
TGI (SNB-75 CNS): > 100 µM
TGI (SNB-78 CNS): > 100 µM
TGI (SR leukemia): > 100 µM
TGI (SW-620 colon): > 100 µM
TGI (TK-10 renal): > 100 µM
TGI (U251 CNS): > 100 µM
TGI (UACC-257 melanoma): > 100 µM
TGI (UACC-62 melanoma): > 100 µM
TGI (UO-31 renal): > 100 µM
TGI (XF 498 CNS): > 100 µM

CC(C)(C)OC(=O)c1cccnc1/C=N/O
TGI (786-0 renal): > 100 µM
TGI (A549 NSCLC): > 100 µM
TGI (ACHN renal): > 100 µM
TGI (CAKI-1 renal): > 100 µM
TGI (CCRF-CEM leukemia): > 100 µM
TGI (COLO 205 colon): > 100 µM
TGI (DLD-1 colon): > 100 µM
TGI (DMS 114 small cell lung): > 100 µM
TGI (DMS 273 small cell lung): > 100 µM
TGI (EKVX NSCLC): > 100 µM
TGI (HCT-116 colon): > 100 µM
TGI (HCT-15 colon): > 100 µM
TGI (HL-60(TB) leukemia): > 100 µM
TGI (HOP-18 NSCLC): > 100 µM
TGI (HOP-62 NSCLC): > 100 µM
TGI (HOP-92 NSCLC): > 100 µM
TGI (HT29 colon): > 100 µM
TGI (IGROV1 ovarian): > 100 µM
TGI (K-562 leukemia): > 100 µM
TGI (KM12 colon): > 100 µM
TGI (KM20L2 colon): > 100 µM
TGI (LOX IMVI melanoma): > 100 µM
TGI (LXFL 529 NSCLC): > 100 µM
TGI (M14 melanoma): > 100 µM
TGI (M19-MEL melanoma): > 100 µM
TGI (MALME-3M melanoma): > 100 µM
TGI (MOLT-4 leukemia): > 100 µM
TGI (NCI-H226 lung): > 100 µM
TGI (NCI-H23 lung): > 100 µM
TGI (NCI-H460 lung): > 100 µM
TGI (NCI-H522 lung): > 100 µM
TGI (OVCAR-3 ovarian): > 100 µM
TGI (OVCAR-4 ovarian): > 100 µM
TGI (OVCAR-5 ovarian): > 100 µM
TGI (OVCAR-8 ovarian): > 100 µM
TGI (RXF 393 renal): > 100 µM
TGI (RXF-631 renal): > 100 µM
TGI (SF-268 CNS): > 100 µM
TGI (SF-295 CNS): > 100 µM
TGI (SF-539 CNS): > 100 µM
TGI (SK-MEL-2 melanoma): > 100 µM
TGI (SK-MEL-28 melanoma): > 100 µM
TGI (SK-MEL-5 melanoma): > 100 µM
TGI (SK-OV-3 ovarian): > 100 µM
TGI (SN12C renal): > 100 µM
TGI (SNB-19 CNS): > 100 µM
TGI (SNB-75 CNS): > 100 µM
TGI (SNB-78 CNS): > 100 µM
TGI (SR leukemia): > 100 µM
TGI (SW-620 colon): > 100 µM
TGI (TK-10 renal): > 100 µM
TGI (U251 CNS): > 100 µM
TGI (UACC-257 melanoma): > 100 µM
TGI (UACC-62 melanoma): > 100 µM
TGI (UO-31 renal): > 100 µM
TGI (XF 498 CNS): > 100 µM
